Experimental data: US4757012A, “Ascorbic acid intermediates and process enzymes” (Genentech, Inc., priority 1984, dated 1988)

Target: T1, 2,5-DKG reductase (Corynebacterium sp., UniProt P06632)
T1 construct: made in house; host or cells: Corynebacterium sp; ATCC 31090 (natural producer, native enzyme purified from cell paste, not recombinant)
Assay: 2,5-DKG reductase kinetic / substrate specificity assay with purified enzyme
Format: biochemical, Corynebacterium sp. ATCC 31090
Details: for Activity of the enzyme with the substance as substrate or cofactor: substrate specificity and cofactor requirements
Excerpt: The following assay conditions were used to determine kinetic parameters: […]

T1 sequence (P06632 whole entry): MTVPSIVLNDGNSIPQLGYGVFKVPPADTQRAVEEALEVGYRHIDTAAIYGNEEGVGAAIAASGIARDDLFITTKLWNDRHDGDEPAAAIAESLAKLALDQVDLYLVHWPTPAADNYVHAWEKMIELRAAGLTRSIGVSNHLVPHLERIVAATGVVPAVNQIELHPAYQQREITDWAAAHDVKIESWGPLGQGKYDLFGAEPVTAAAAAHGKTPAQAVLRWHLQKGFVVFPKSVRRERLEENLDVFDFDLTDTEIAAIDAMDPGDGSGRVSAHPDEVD

SMILES: O=C(O)[C@H](O)[C@@H](O)[C@H](O)[C@H](O)CO [D-gluconic acid]
- Activity of the enzyme with the substance as substrate or cofactor: No activity

SMILES: Nc1ncnc2c1ncn2[C@@H]1O[C@H](COP(=O)(O)OP(=O)(O)OP(=O)(O)O)[C@@H](O)[C@H]1O [ATP]
- Alteration of enzyme activity in the presence of the substance: No alteration of activity

SMILES: N[C@@H](CS)C(=O)O [cysteine]
- Alteration of enzyme activity in the presence of the substance: No alteration of activity

SMILES: Nc1ncnc2c1ncn2[C@@H]1O[C@H](COP(=O)(O)OP(=O)(O)O)[C@@H](O)[C@H]1O [ADP]
- Alteration of enzyme activity in the presence of the substance: No alteration of activity

SMILES: [Mn+2] [MN^++]
- Alteration of enzyme activity in the presence of the substance: No alteration of activity

SMILES: NC(=O)C1=CN([C@@H]2O[C@H](COP(=O)(O)OP(=O)(O)OC[C@H]3O[C@@H](n4cnc5c(N)ncnc54)[C@H](O)[C@@H]3O)[C@@H](O)[C@H]2O)C=CC1 [NADH]
- Activity of the enzyme with the substance as substrate or cofactor: No activity

SMILES: O=C(O)CN(CCN(CC(=O)O)CC(=O)O)CC(=O)O [EDTA]
- Alteration of enzyme activity in the presence of the substance: No alteration of activity

SMILES: [Zn+2] [Zn^++]
- Alteration of enzyme activity in the presence of the substance: No alteration of activity

SMILES: O=C(O)C(=O)[C@@H](O)[C@H](O)[C@@H](O)CO [2-KLG, 2-keto-L-gulonic acid]
- Activity of the enzyme with the substance as substrate or cofactor: No activity

SMILES: O=C(CO)[C@@H](O)[C@H](O)[C@@H](O)C(=O)O [5-KDG, 5-keto-D-gluconic acid]
- Activity of the enzyme with the substance as substrate or cofactor: No activity

SMILES: [Ca+2] [Ca^++]
- Alteration of enzyme activity in the presence of the substance: No alteration of activity

SMILES: O=C(O)C(=O)[C@@H](O)[C@H](O)[C@H](O)CO [2-KDG, 2-keto-D-gluconic acid]
- Activity of the enzyme with the substance as substrate or cofactor: No activity

SMILES: [Mg+2] [Mg^++]
- Alteration of enzyme activity in the presence of the substance: No alteration of activity
